Results from PubChem BioAssay AID236 (DTP/NCI, 2004).
Several values for one entry are separate records, joined by “and”; a condition that tells them apart may be missing. Equal entries are not always repeated. Inconclusive results and toxic doses are left out.

Test system: AK4 lymphoid leukemia ip, C3AKF1 mice, survival
Assay: NCI In Vivo Anticancer Drug Screen. Data for tumor model AK4 Lymphoid Leukemia (intraperitoneal) in C3AKF1 (CHKRF1) mice
Conditions: endpoint: median survival time, higher = longer survival
Procedure: The antitumor activity of compounds was measured in mice bearing transplantable tumors. Survival or tumor size were measured and the results are expressed as the measurement made in the treated group (T) divided by the measurement made in the vehicle treated control group (C). The tumor model used in this assay is AK4 Lymphoid Leukemia (intraperitoneal) in C3AKF1 (CHKRF1) mice

[1] = dose: 0.5 mg/kg/injection, schedule: Q01DX010 (ip), vehicle: saline
[2] = dose: 1.0 mg/kg/injection, schedule: Q01DX010 (ip), vehicle: saline
[3] = dose: 2.0 mg/kg/injection, schedule: Q01DX010 (ip), vehicle: saline
[4] = dose: 4.0 mg/kg/injection, schedule: Q01DX010 (ip), vehicle: saline
[5] = dose: 2.5 mg/kg/injection, schedule: Q01DX010 (ip), vehicle: saline
[6] = dose: 5.0 mg/kg/injection, schedule: Q01DX010 (ip), vehicle: saline
[7] = dose: 10.0 mg/kg/injection, schedule: Q01DX010 (ip), vehicle: saline
[8] = dose: 20.0 mg/kg/injection, schedule: Q01DX010 (ip), vehicle: saline
[9] = dose: 125.0 mg/kg/injection, schedule: Q01DX010 (ip), vehicle: saline
[10] = dose: 250.0 mg/kg/injection, schedule: Q01DX010 (ip), vehicle: saline
[11] = dose: 500.0 mg/kg/injection, schedule: Q01DX010 (ip), vehicle: saline
[12] = dose: 1000.0 mg/kg/injection, schedule: Q01DX010 (ip), vehicle: saline
[13] = dose: 3.13 mg/kg/injection, schedule: Q01DX010 (ip), vehicle: saline
[14] = dose: 6.25 mg/kg/injection, schedule: Q01DX010 (ip), vehicle: saline
[15] = dose: 12.5 mg/kg/injection, schedule: Q01DX010 (ip), vehicle: saline
[16] = dose: 40.0 mg/kg/injection, schedule: Q01DX010 (ip), vehicle: saline
[17] = dose: 25.0 mg/kg/injection, schedule: Q01DX010 (ip), vehicle: saline
[18] = dose: 50.0 mg/kg/injection, schedule: Q01DX010 (ip), vehicle: saline
[19] = dose: 100.0 mg/kg/injection, schedule: Q01DX010 (ip), vehicle: saline

CS(=O)(=O)OCCN(CCOS(C)(=O)=O)c1ccc(N=O)cc1
T/C [1]: 111 % of control
T/C [2]: 111 % of control
T/C [3]: 94 % of control
T/C [4]: 88 % of control
T/C (dose: 62.5 micrograms/kg/injection, schedule: Q01DX010 (ip), vehicle: saline): 110 % of control
T/C (dose: 125.0 micrograms/kg/injection, schedule: Q01DX010 (ip), vehicle: saline): 115 % of control
T/C (dose: 250.0 micrograms/kg/injection, schedule: Q01DX010 (ip), vehicle: saline): 115 % of control
T/C (dose: 500.0 micrograms/kg/injection, schedule: Q01DX010 (ip), vehicle: saline): 115 % of control

S=P(N1CCOCC1)(N1CC1)N1CC1
T/C [5]: 94 % of control
T/C [6]: 105 % of control
T/C [7]: 100 % of control
T/C [8]: 94 % of control

Cc1n[nH]c(=O)[nH]c1=O
T/C [9]: 87 % of control
T/C [10]: 100 % of control
T/C [11]: 87 % of control
T/C [12]: 87 % of control

CC[n+]1c(-c2ccccc2)c2cc(N)ccc2c2ccc(N)cc21
T/C (dose: 1.25 mg/kg/injection, schedule: Q01DX010 (ip), vehicle: saline): 100 % of control
T/C [5]: 100 % of control
T/C [6]: 100 % of control
T/C [7]: 100 % of control and 112 % of control
T/C [8]: 112 % of control

C1CN1c1nc(N2CC2)nc(N2CC2)n1
T/C (dose: 0.25 mg/kg/injection, schedule: Q01DX010 (ip), vehicle: saline): 116 % of control
T/C [1]: 150 % of control
T/C [2]: 111 % of control

O=C(O)CCCc1ccc(N(CCCl)CCCl)cc1
T/C [13]: 100 % of control
T/C [14]: 113 % of control and 120 % of control
T/C [15]: 95 % of control

CN(Cc1cnc2nc(N)nc(N)c2n1)c1ccc(C(=O)N[C@@H](CCC(=O)O)C(=O)O)cc1
T/C (dose: 0.19 mg/kg/injection, schedule: Q01DX Z (ip), vehicle: saline): 120 % of control
T/C (dose: 0.38 mg/kg/injection, schedule: Q01DX010 (ip), vehicle: other): 155 % of control and 181 % of control
T/C (dose: 0.38 mg/kg/injection, schedule: Q01DX Z (ip), vehicle: saline): 180 % of control
T/C (dose: 0.75 mg/kg/injection, schedule: Q01DX010 (ip), vehicle: other): 160 % of control and 181 % of control
T/C (dose: 0.75 mg/kg/injection, schedule: Q01DX Z (ip), vehicle: saline): 253 % of control and 361 % of control
T/C (dose: 1.5 mg/kg/injection, schedule: Q01DX010 (ip), vehicle: other): 185 % of control and 256 % of control
T/C (dose: 3.0 mg/kg/injection, schedule: Q01DX010 (ip), vehicle: other): 175 % of control

CN(C)c1ccc(/C=C/c2ccnc3ccccc23)cc1
T/C [6]: 111 % of control
T/C [7]: 105 % of control
T/C [8]: 94 % of control
T/C [16]: 100 % of control

Nc1ncnc2c1ccn2C1OC(CO)C(O)C1O (configuration not stated)
T/C (dose: 156.0 micrograms/kg/injection, schedule: Q01DX010 (ip), vehicle: saline): 106 % of control
T/C (dose: 313.0 micrograms/kg/injection, schedule: Q01DX010 (ip), vehicle: saline): 112 % of control
T/C (dose: 625.0 micrograms/kg/injection, schedule: Q01DX010 (ip), vehicle: saline): 112 % of control
T/C (dose: 1250.0 micrograms/kg/injection, schedule: Q01DX010 (ip), vehicle: saline): 112 % of control

Nc1c(Br)cc2c(c1Br)Cc1cc([N+](=O)[O-])ccc1-2
T/C (dose: 62.5 mg/kg/injection, schedule: Q01DX010 (ip), vehicle: saline): 100 % of control and 105 % of control
T/C [9]: 94 % of control and 100 % of control
T/C [10]: 94 % of control and 105 % of control
T/C [11]: 94 % of control

CCN(CC)C(=S)S
T/C [9]: 87 % of control
T/C [10]: 87 % of control
T/C [11]: 87 % of control
T/C [12]: 93 % of control

O=P1(N(CCCl)CCCl)NCCCO1 (configuration not stated)
T/C (dose: 11.3 mg/kg/injection, schedule: Q01DX010 (ip), vehicle: saline): 175 % of control
T/C (dose: 11.3 mg/kg/injection, schedule: Q01DX Z (ip), vehicle: saline): 180 % of control and 189 % of control
T/C (dose: 22.5 mg/kg/injection, schedule: Q01DX010 (ip), vehicle: saline): 170 % of control and 187 % of control
T/C (dose: 22.5 mg/kg/injection, schedule: Q01DX Z (ip), vehicle: saline): 202 % of control and 210 % of control
T/C (dose: 45.0 mg/kg/injection, schedule: Q01DX010 (ip), vehicle: saline): 220 % of control and 375 % of control
T/C (dose: 45.0 mg/kg/injection, schedule: Q01DX Z (ip), vehicle: saline): 196 % of control and 204 % of control
T/C (dose: 90.0 mg/kg/injection, schedule: Q01DX010 (ip), vehicle: saline): 105 % of control and 225 % of control
T/C (dose: 90.0 mg/kg/injection, schedule: Q01DX Z (ip), vehicle: saline): 151 % of control and 168 % of control
T/C (dose: 180.0 mg/kg/injection, schedule: Q01DX010 (ip), vehicle: saline): 105 % of control and 118 % of control
T/C (dose: 180.0 mg/kg/injection, schedule: Q01DX Z (ip), vehicle: saline): 113 % of control and 120 % of control

CS(=O)(=O)OCC(O)C(O)C(O)C(O)COS(C)(=O)=O (configuration not stated)
T/C [15]: 112 % of control
T/C [17]: 100 % of control and 105 % of control
T/C [18]: 94 % of control
T/C [19]: 87 % of control and 100 % of control
T/C (dose: 200.0 mg/kg/injection, schedule: Q01DX010 (ip), vehicle: saline): 100 % of control

S=c1nc[nH]c2nc[nH]c12
T/C (dose: 5.0 mg/kg/injection, schedule: Q01DX010 (ip), vehicle: alkali diluted with saline): 100 % of control
T/C (dose: 5.0 mg/kg/injection, schedule: Q01DX Z (ip), vehicle: saline): 93 % of control
T/C (dose: 10.0 mg/kg/injection, schedule: Q01DX010 (ip), vehicle: alkali diluted with saline): 95 % of control and 118 % of control
T/C (dose: 10.0 mg/kg/injection, schedule: Q01DX Z (ip), vehicle: saline): 93 % of control and 96 % of control
T/C (dose: 20.0 mg/kg/injection, schedule: Q01DX010 (ip), vehicle: alkali diluted with saline): 100 % of control and 112 % of control
T/C (dose: 20.0 mg/kg/injection, schedule: Q01DX Z (ip), vehicle: saline): 90 % of control and 106 % of control
T/C (dose: 40.0 mg/kg/injection, schedule: Q01DX010 (ip), vehicle: alkali diluted with saline): 93 % of control and 110 % of control
T/C (dose: 40.0 mg/kg/injection, schedule: Q01DX Z (ip), vehicle: saline): 93 % of control and 96 % of control
T/C (dose: 80.0 mg/kg/injection, schedule: Q01DX010 (ip), vehicle: alkali diluted with saline): 100 % of control
T/C (dose: 80.0 mg/kg/injection, schedule: Q01DX Z (ip), vehicle: saline): 93 % of control and 96 % of control

COS(C)(=O)=O
T/C [15]: 100 % of control and 105 % of control
T/C [17]: 100 % of control
T/C [18]: 88 % of control and 116 % of control
T/C [19]: 100 % of control and 111 % of control

O=c1c(O)cccc2cc(O)c(O)c(O)c12
T/C [17]: 94 % of control

CN(C)c1nc(N(C)C)nc(N(C)C)n1
T/C (dose: 18.8 mg/kg/injection, schedule: Q01DX010 (ip), vehicle: saline): 94 % of control
T/C (dose: 37.5 mg/kg/injection, schedule: Q01DX010 (ip), vehicle: saline): 100 % of control
T/C (dose: 75.0 mg/kg/injection, schedule: Q01DX010 (ip), vehicle: saline): 94 % of control
T/C (dose: 150.0 mg/kg/injection, schedule: Q01DX010 (ip), vehicle: saline): 100 % of control

C[C@H]1C(=O)O[C@@H]2CCN3CC=C(COC(=O)[C@](C)(O)[C@@]1(C)O)[C@H]23
T/C [13]: 111 % of control
T/C [14]: 100 % of control
T/C [15]: 117 % of control

CC(=O)O[C@]1(C(C)=O)CC[C@H]2[C@@H]3C[C@H](C)C4=CC(=O)C=C[C@]4(C)[C@@]3(F)[C@@H](O)C[C@@]21C
T/C (dose: 12.5 mg/kg/injection, schedule: Q01DX010 (sc), vehicle: steriod suspending solution): 100 % of control
T/C (dose: 25.0 mg/kg/injection, schedule: Q01DX010 (sc), vehicle: steriod suspending solution): 100 % of control
T/C (dose: 50.0 mg/kg/injection, schedule: Q01DX010 (sc), vehicle: steriod suspending solution): 111 % of control
T/C (dose: 100.0 mg/kg/injection, schedule: Q01DX010 (sc), vehicle: steriod suspending solution): 88 % of control and 100 % of control

CC(CCC(C)OS(C)(=O)=O)OS(C)(=O)=O (configuration not stated)
T/C [3]: 88 % of control
T/C [4]: 88 % of control
T/C (dose: 8.0 mg/kg/injection, schedule: Q01DX010 (ip), vehicle: saline): 94 % of control

CCN(CC)CCNc1ccc(C)c2sc3ccccc3c(=O)c12
T/C [17]: 122 % of control
T/C [19]: 105 % of control

C[C@@H]1C[C@@H]([C@H](O)CC2CC(=O)NC(=O)C2)C(=O)[C@@H](C)C1
T/C [6]: 100 % of control and 107 % of control
T/C [7]: 87 % of control and 121 % of control
T/C [8]: 93 % of control and 114 % of control

CN(N=O)C(N)=O
T/C [7]: 162 % of control
T/C [8]: 225 % of control
T/C [16]: 112 % of control
